Laboratory results from publication PMC4293787 (The Scientific World Journal, 2014).
≈ marks a conversion by molar mass, not a printed value. Where two headings read alike, the source gives them in different places.

Tests used:
hepatitis B virus (HBV) = test: Antiviral test against HBV in HepG 2.2.2.15 cells; format: cell-based, strain ayw1; design: SI50: unit not given beside the values; details: for SI50: HBV, HepG 2.2.2.15 cells
influenza A H1N1 virus [1] = test: Antiviral test against influenza A H1N1 in MDCK cells, visual (cytopathic effect); format: cell-based, strain California 07/2009; design: SI50: unit not given beside the values; details: for EC50: Influenza A virus, H1N1, MDCK
in vitro [2] = details: dog, MDCK cells
influenza A H1N1 virus [3] = test: Antiviral test against influenza A H1N1 in MDCK cells, neutral red (cytopathic effect); format: cell-based, strain California 07/2009; design: SI50: unit not given beside the values; details: for EC50: Influenza A virus, H1N1, MDCK
in vitro [4] = details: dog, MDCK cells; remark: listed apart in the source
in vitro [5] = details: human
in vitro [6] = details: human; remark: listed apart in the source
[7] = Toxicity (CC50) in the HSV-1 test, HFF cells (crystal violet); details: human
[8] = test system: herpes simplex virus 1 (HSV-1); test: microbe, parasite or virus in culture; format: cell-based, strain E-377; design: SI50: unit not given beside the values; details: for EC50: Human alphaherpesvirus 1, HFF
[9] = test system: herpes simplex virus 2 (HSV-2); test: Antiviral test against HSV-2 in HFF cells (crystal violet); format: cell-based, strain MS; design: SI50: unit not given beside the values
[10] = Toxicity (CC50) in the HSV-2 test, HFF cells (crystal violet); details: human
vaccinia virus (VV) = test: microbe, parasite or virus in culture; format: cell-based, strain Copenhagen; details: Orthopoxvirus vaccinia, HFF
[11] = Hepatitis B virus, HepG2 2.2.15

SMILES | EC50 (influenza A H1N1 virus [1]) [µg/mL] | CC50 (in vitro [2]) [µg/mL] | EC50 (influenza A H1N1 virus [3]) [µg/mL] | CC50 (in vitro [4]) [µg/mL] | melting point | CC50 (in vitro [6]) [µM] | SI50 (hepatitis B virus (HBV)) | EC50 (hepatitis B virus (HBV); [11]) [µM] | further results
Nc1ccn([C@@H]2CS[C@H](CO)O2)c(=O)n1 [Compound 3TC, 3TC, reference compound] |  |  |  |  |  |  |  |  | EC50 (hepatitis B virus (HBV); HBV strain ayw1, drug concentration range 0.063–20 μM, 3TC control range 0.00032–0.1 μM, read-out: EC50): 0.01 µM
O=C(NC1C=CC(O)C1)c1ccccn1 (stereo not drawn) [Compound 13a, N-(4-Hydroxycyclopent-2-enyl)picolinamide] | > 100 | > 100 | > 100 | > 100 |  |  |  |  | 
O=C(NC1C=CC(O)C1)c1cccnc1 (stereo not drawn) [Compound 13b, N-(4-Hydroxycyclopent-2-enyl)nicotinamide] | > 100 | > 100 | > 100 | > 100 | 125 to 127 °C |  |  |  | CC50 (in vitro [5]): > 300 µM
O=C(NC1C=CC(O)C1)c1ccncc1 (stereo not drawn) [Compound 13c, N-(4-Hydroxycyclopent-2-enyl)isonicotinamide] | > 100 | > 100 | > 100 | > 100 | 170 to 175 °C |  |  |  | CC50 (in vitro [5]): > 300 µM
O=C(NC1C=CC(O)C1)c1ccc2ccccc2n1 (stereo not drawn) [Compound 13d, N-(4-Hydroxycyclopent-2-enyl)quinoline-2-carboxamide] | > 100 | > 100 | > 100 | > 100 | 89 to 90 °C |  |  |  | 
O=C(NC1C=CC(O)CC1)c1ccccn1 (stereo not drawn) [Compound 14a, N-(4-Hydroxycyclohex-2-enyl)picolinamide] | > 100 | > 100 | > 100 | > 100 |  | > 20 | 1 | > 20 | 
O=C(NC1C=CC(O)CC1)c1cccnc1 (stereo not drawn) [Compound 14b, N-(4-Hydroxycyclohex-2-enyl)nicotinamide] | > 100 | > 100 | > 100 | > 100 | 95 to 99 °C | > 20 | 1 | > 20 | 
O=C(NC1C=CC(O)CC1)c1ccncc1 (stereo not drawn) [Compound 14c, N-(4-Hydroxycyclohex-2-enyl)isonicotinamide] | > 100 | > 100 | > 100 | > 100 | 245 to 250 °C (dec.) | > 100 | 1 | 9.64 | 
O=C(NC1C=CC(O)CC1)c1ccc2ccccc2n1 (stereo not drawn) [Compound 14d, N-(4-Hydroxycyclohex-2-enyl)quinoline-2-carboxamide] | 37 (≈ 138 µM) |  | 54 (≈ 201 µM) |  | 80 to 84 °C | > 20 | 1 | > 20 | SI50 (influenza A H1N1 virus [1]; influenza A H1N1, MDCK cells, visual): >2.7; SI50 (influenza A H1N1 virus [3]; influenza A H1N1, MDCK cells, neutral red): 1.4
NC(=O)c1ncn([C@@H]2O[C@H](CO)[C@@H](O)[C@H]2O)n1 [Ribavirin, reference compound] | 3.2 (≈ 13.1 µM) |  | 3.1 (≈ 12.7 µM) |  |  |  |  |  | SI50 (influenza A H1N1 virus [1]): >31; SI50 (influenza A H1N1 virus [3]): 14
Nc1nc2c(ncn2COCCO)c(=O)[nH]1 [acyclovir] |  |  |  |  |  |  |  |  | CC50 [7]: > 100 µM; SI50 [8]: > 30; EC50 [8]: 3.29 µM; SI50 [9]: > 27; EC50 ([9]; Human alphaherpesvirus 2, HFF): 3.7 µM; CC50 [10]: > 100 µM
Nc1ccn(C[C@@H](CO)OCP(=O)(O)O)c(=O)n1 [cidofovir] |  |  |  |  |  |  | > 1 | 180 | EC50 (vaccinia virus (VV)): 6.07 µM; CC50 [7]: > 200 µM; SI50 ([8]; HSV-1, HFF cells): > 1; EC50 [8]: 180 µM
